The nature of series [1]: H+/Na+ transport assay of bead-derived peptides (one-point).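 Note: relative to parent gramicidin A activity set to 1.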 In kind it is biochemical. More on the design: key: relative activity; mean of two control wells = 1.00. Particulars: bead-derived peptide solution, EYPC/EYPG LUVs. A digest of the protocol:
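Miniaturized 96-well format. LUVs with entrapped pyranine (1.0 mM) were exposed to peptide for 30 min at RT. Intensities were expressed relative to full lysis by Triton X-100 and no treatment, with control-well mean = 1.00.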

For series [2], the system named is P388 mouse leukemia cells. The conditions noted are these: 92 h. A digest of the protocol: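 Peptide stocks diluted 250× in growth medium; P388 cells 1 × 10^4 cells/mL final; 37 °C, 5% CO2, 92 h. WST-1 + 1-methoxy PMS, 4 h, A415. Output: % viability.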
The subject of series [3] is Streptococcus pyogenes SSI-9. Kind of series: Antibacterial activity assay of bead-derived peptides (three concentrations). Format: cell-based. Also on record: key: +++: inhibition by the 640-fold diluted peptide solution; ++: inhibition by the 160-fold diluted solution; +: inhibition by the 40-fold diluted solution; -: no inhibition. Particulars: S. pyogenes, bead-derived peptide solution, three concentrations. A digest of the protocol:
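Growth inhibition scored visually as precipitated bacteria after 37 °C, 18 h incubation. Streptococcus pyogenes SSI-9 inoculum of 2 × 10^5 CFU in Ca2+/Mg2+-adjusted Mueller Hinton broth plus 5% laked horse blood; peptides tested at three levels: stock, 4-fold and 16-fold DMSO dilutions.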

Where a SMILES comes first, the peptide text is derived from it. [ ]: non-standard residue; d: D form. The star is where a group is joined. NHCH2CH2OH = OCCN*; For = O=C*

For `CC(C)C[C@@H](NC(=O)[C@H](Cc1c[nH]c2ccccc12)NC(=O)[C@@H](CC(C)C)NC(=O)[C@@H](NC(=O)[C@H](NC(=O)[C@H](C)NC(=O)[C@H](NC(=O)[C@H](C)NC(=O)CNC(=O)[C@@H](NC=O)C(C)C)C(C)C)C(C)C)C(C)C)C(=O)N[C@@H](Cc1c[nH]c2ccccc12)C(=O)N[C@@H](C(=O)N[C@@H](Cc1c[nH]c2ccccc12)C(=O)N[C@@H](C(=O)N[C@@H](Cc1c[nH]c2ccccc12)C(=O)NCCO)C(C)C)[C@H](C)O` [compound 5311] (For-VGA[dV]A[dV]V[dL]W[dL]W[dT]W[dV]W-NHCH2CH2OH), the “H+/Na+ transport activity normalized against the value of 1 (1.00)” value (shortened to “H+/Na+ transport activity normalized”) in series [1] was 1.15. The molecule also showed a cell viability/% in series [2] of 100.0%. Further, the antibacterial activity result in series [3] was “+”.
`CC(C)C[C@@H](NC(=O)[C@H](C)NC(=O)[C@H](NC(=O)[C@H](C)NC(=O)CNC(=O)[C@@H](NC=O)C(C)C)[C@H](C)O)C(=O)N[C@H](C(=O)N[C@H](CC(C)C)C(=O)N[C@@H](Cc1c[nH]c2ccccc12)C(=O)N[C@H](CC(C)C)C(=O)N[C@@H](Cc1c[nH]c2ccccc12)C(=O)N[C@@H](C(=O)N[C@@H](Cc1c[nH]c2ccccc12)C(=O)N[C@H](CC(C)C)C(=O)N[C@@H](Cc1c[nH]c2ccccc12)C(=O)NCCO)C(C)C)C(C)C` [compound 5329] (For-VGA[dT]A[dL]V[dL]W[dL]W[dV]W[dL]W-NHCH2CH2OH): the “H+/Na+ transport activity normalized” value in series [1] is on record as 1.26. This molecule returned a cell viability/% in series [2] of 100.0%. The antibacterial activity entry in series [3] is “-”.
Regarding `CC(C)C[C@@H](NC(=O)[C@H](C)NC(=O)[C@H](NC(=O)[C@H](C)NC(=O)CNC(=O)[C@@H](NC=O)C(C)C)C(C)C)C(=O)N[C@H](C(=O)N[C@H](CC(C)C)C(=O)N[C@@H](Cc1c[nH]c2ccccc12)C(=O)N[C@H](CC(C)C)C(=O)N[C@@H](Cc1c[nH]c2ccccc12)C(=O)N[C@@H](C(=O)N[C@@H](Cc1c[nH]c2ccccc12)C(=O)N[C@@H](C(=O)N[C@@H](Cc1c[nH]c2ccccc12)C(=O)NCCO)[C@H](C)O)C(C)C)C(C)C` [compound 5370] (For-VGA[dV]A[dL]V[dL]W[dL]W[dV]W[dT]W-NHCH2CH2OH), in series [1], the “H+/Na+ transport activity normalized” value worked out at 1.18. For the same molecule, in series [2], the cell viability/% turned out to be 100.0%. The antibacterial activity result in series [3] is “++”.
On to `CNC(=O)C[C@@H](NC(=O)[C@H](Cc1c[nH]c2ccccc12)NC(=O)[C@@H](CC(C)C)NC(=O)[C@@H](NC(=O)[C@@H](CC(C)C)NC(=O)[C@H](C)NC(=O)[C@H](NC(=O)[C@H](C)NC(=O)CNC(=O)[C@@H](NC=O)C(C)C)C(C)C)C(C)C)C(=O)N[C@@H](Cc1c[nH]c2ccccc12)C(=O)N[C@@H](C(=O)N[C@@H](Cc1c[nH]c2ccccc12)C(=O)N[C@@H](C(=O)N[C@@H](Cc1c[nH]c2ccccc12)C(=O)NCCO)C(C)C)C(C)C` [compound 5380] (For-VGA[dV]A[dL]V[dL]W[dD](NHMe)W[dV]W[dV]W-NHCH2CH2OH), for which the “H+/Na+ transport activity normalized” value in series [1] was found to be 1.05. The molecule further registered a cell viability/% in series [2] of 100.0%. In addition, in series [3], the antibacterial activity entry is “-”.
Turning to `CC(C)C[C@@H](NC(=O)[C@H](C)NC(=O)CNC(=O)[C@@H](NC=O)C(C)C)C(=O)N[C@@H](C)C(=O)N[C@@H](C(=O)N[C@H](C(=O)N[C@@H](C(=O)N[C@@H](Cc1c[nH]c2ccccc12)C(=O)N[C@@H](C(=O)N[C@@H](Cc1c[nH]c2ccccc12)C(=O)N[C@H](CC(C)C)C(=O)N[C@@H](Cc1c[nH]c2ccccc12)C(=O)N[C@@H](C(=O)N[C@@H](Cc1c[nH]c2ccccc12)C(=O)NCCO)C(C)C)C(C)C)C(C)C)C(C)C)C(C)C` [compound 5393] (For-VGA[dL]A[dV]V[dV]W[dV]W[dL]W[dV]W-NHCH2CH2OH), in series [1], the “H+/Na+ transport activity normalized” value was determined as 1.32. This molecule gave a cell viability/% in series [2] of 100.0%. In series [3], the antibacterial activity result is “+”.
Take `CC(C)C[C@@H](NC(=O)[C@H](C)NC(=O)[C@H](NC(=O)[C@H](C)NC(=O)CNC(=O)[C@@H](NC=O)C(C)C)C(C)C)C(=O)N[C@H](C(=O)N[C@@H](C(=O)N[C@@H](Cc1c[nH]c2ccccc12)C(=O)N[C@@H](C(=O)N[C@@H](Cc1c[nH]c2ccccc12)C(=O)N[C@H](CC(C)C)C(=O)N[C@@H](Cc1c[nH]c2ccccc12)C(=O)N[C@H](CC(C)C)C(=O)N[C@@H](Cc1c[nH]c2ccccc12)C(=O)NCCO)C(C)C)C(C)C)C(C)C` [compound 5463] (For-VGA[dV]A[dL]V[dV]W[dV]W[dL]W[dL]W-NHCH2CH2OH): in series [1], the “H+/Na+ transport activity normalized” value came to 1.11. The cell viability/% in series [2] was 100.0%. Moreover, in series [3], the antibacterial activity result was “++”.
Regarding `CC(C)C[C@@H](NC(=O)[C@H](C)NC(=O)CNC(=O)[C@@H](NC=O)C(C)C)C(=O)N[C@@H](C)C(=O)N[C@@H](C(=O)N[C@H](C(=O)N[C@@H](C(=O)N[C@@H](Cc1c[nH]c2ccccc12)C(=O)N[C@@H](C(=O)N[C@@H](Cc1c[nH]c2ccccc12)C(=O)N[C@H](CC(C)C)C(=O)N[C@@H](Cc1c[nH]c2ccccc12)C(=O)N[C@H](CC(C)C)C(=O)N[C@@H](Cc1c[nH]c2ccccc12)C(=O)NCCO)C(C)C)[C@H](C)O)C(C)C)C(C)C` [compound 5482] (For-VGA[dL]A[dV]V[dT]W[dV]W[dL]W[dL]W-NHCH2CH2OH), the “H+/Na+ transport activity normalized” value in series [1] is listed as 1.25. Moreover, in series [2], the cell viability/% is 100.0%. The antibacterial activity entry in series [3] is recorded as “-”.
As for `CC(C)C[C@@H](NC(=O)[C@H](C)NC(=O)CNC(=O)[C@@H](NC=O)C(C)C)C(=O)N[C@@H](C)C(=O)N[C@H](CC(C)C)C(=O)N[C@H](C(=O)N[C@@H](C(=O)N[C@@H](Cc1c[nH]c2ccccc12)C(=O)N[C@@H](C(=O)N[C@@H](Cc1c[nH]c2ccccc12)C(=O)N[C@@H](C(=O)N[C@@H](Cc1c[nH]c2ccccc12)C(=O)N[C@@H](C(=O)N[C@@H](Cc1c[nH]c2ccccc12)C(=O)NCCO)C(C)C)C(C)C)C(C)C)C(C)C)C(C)C` [compound 5488] (For-VGA[dL]A[dL]V[dV]W[dV]W[dV]W[dV]W-NHCH2CH2OH), the “H+/Na+ transport activity normalized” value in series [1] came out at 1.23. Further, the cell viability/% in series [2] is listed as 36.4%. Also, in series [3], the antibacterial activity entry is “+”.
Take `CNC(=O)C[C@@H](NC(=O)[C@@H](NC(=O)[C@@H](CC(C)C)NC(=O)[C@H](C)NC(=O)[C@@H](CC(C)C)NC(=O)[C@H](C)NC(=O)CNC(=O)[C@@H](NC=O)C(C)C)C(C)C)C(=O)N[C@@H](Cc1c[nH]c2ccccc12)C(=O)N[C@H](CC(C)C)C(=O)N[C@@H](Cc1c[nH]c2ccccc12)C(=O)N[C@H](CC(C)C)C(=O)N[C@@H](Cc1c[nH]c2ccccc12)C(=O)N[C@@H](C(=O)N[C@@H](Cc1c[nH]c2ccccc12)C(=O)NCCO)C(C)C` [compound 5491] (For-VGA[dL]A[dL]V[dD](NHMe)W[dL]W[dL]W[dV]W-NHCH2CH2OH): in series [1], the “H+/Na+ transport activity normalized” value was determined as 1.24. Moreover, the cell viability/% in series [2] is reported as 100.0%. The antibacterial activity result in series [3] was “-”.

The record behind these values is paper PMC7531004, “Discovery of gramicidin A analogues with altered activities by multidimensional screening of a one-bead-one-compound library” (Nature Communications, 2020).
